# Measured values published in patent EP4745134A1 (Jiangsu Yahong Meditech Co., Ltd., priority 2023, dated 2025).
# pIC50: −log10 of the molar value.
# Columns and labels:
# [1] = target: PRMT5-MTA (Homo sapiens, UniProt O14744); test: Enzymatic inhibitory activity against PRMT5-MTA (AlphaScreen); format: biochemical; conditions: read-out: IC50
# Method in brief: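 PRMT5/[…] (1 nM) was preincubated for 30 min at room temperature with 1 µM […] and 2.5 µM SAM, then exposed to compound (10-point, 3-fold from 1000 nM) for 15 min at 23 °C. Histone H4 substrate (5 nM) was added and reacted for 45 min at 23 °C. Symmetric dimethyl-R3 H4 was detected by AlphaScreen and IC50 calculated.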
# [2] = test system: HCT116-WT cells; test: Inhibitory activity against cell proliferation (CellTiter Glo, 6 days), HCT116-WT; format: cell-based; conditions: 144 h, HCT116-WT cells, 6 days, CellTiter Glo; read-out: HCT116-WT IC50
# Method in brief: (§1)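 HCT116 wild-type or MTAP-knockout cells (250/well, McCoy's 5A + 10% FBS) treated after overnight culture with 8-point 4-fold dilutions from 10000 nM for 6 days at 37 °C. Viability read by CellTiter Glo luminescence on day 7; IC50 calculated against DMSO controls.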
# [3] = test system: HCT116 MTAP KO cells; test: Inhibitory activity against cell proliferation (CellTiter Glo, 6 days), HCT116 MTAP KO; format: cell-based; conditions: for pIC50: Homo sapiens, HCT-116, 144 h, HCT116 MTAP KO cells, 6 days, CellTiter Glo, read-out: HCT116 MTAP KO IC50; for Selectivity HCT 116-WT/ HCT116 MTAP KO: ratio of IC50 HCT116-WT / HCT116 MTAP KO
# Method in brief: as §1
# Chain of PRMT5-MTA (O14744 whole entry): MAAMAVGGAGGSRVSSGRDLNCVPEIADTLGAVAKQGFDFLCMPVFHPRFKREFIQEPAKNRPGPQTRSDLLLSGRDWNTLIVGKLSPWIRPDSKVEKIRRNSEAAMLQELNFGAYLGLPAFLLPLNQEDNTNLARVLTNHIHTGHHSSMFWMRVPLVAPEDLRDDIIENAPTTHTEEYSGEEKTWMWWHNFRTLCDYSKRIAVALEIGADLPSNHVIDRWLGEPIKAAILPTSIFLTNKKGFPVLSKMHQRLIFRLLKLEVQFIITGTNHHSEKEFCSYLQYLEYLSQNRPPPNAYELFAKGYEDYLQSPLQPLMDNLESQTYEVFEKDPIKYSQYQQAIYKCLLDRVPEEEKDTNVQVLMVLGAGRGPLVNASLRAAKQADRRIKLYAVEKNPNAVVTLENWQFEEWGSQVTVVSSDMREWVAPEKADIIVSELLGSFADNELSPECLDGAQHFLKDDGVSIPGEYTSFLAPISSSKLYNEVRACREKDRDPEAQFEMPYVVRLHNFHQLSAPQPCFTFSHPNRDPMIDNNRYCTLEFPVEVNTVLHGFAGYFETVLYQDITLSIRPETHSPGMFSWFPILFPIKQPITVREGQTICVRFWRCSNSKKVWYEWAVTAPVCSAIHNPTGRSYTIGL
# Chain of PRMT5-MTA (Q9BQA1 whole entry partner): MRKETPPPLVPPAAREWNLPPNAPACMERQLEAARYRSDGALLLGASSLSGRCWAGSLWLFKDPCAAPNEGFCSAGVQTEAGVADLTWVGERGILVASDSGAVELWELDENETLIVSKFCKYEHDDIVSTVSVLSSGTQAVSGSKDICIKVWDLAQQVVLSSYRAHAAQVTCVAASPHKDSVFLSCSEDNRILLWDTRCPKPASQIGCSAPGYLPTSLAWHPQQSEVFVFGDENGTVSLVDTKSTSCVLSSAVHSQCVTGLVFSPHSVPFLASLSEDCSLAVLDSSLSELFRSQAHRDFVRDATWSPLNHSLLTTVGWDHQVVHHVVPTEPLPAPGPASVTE
Structure (SMILES),pIC50 [1],pIC50 [2],pIC50 [3],Selectivity HCT 116-WT/ HCT116 MTAP KO [3]
"[2H]C([2H])([2H])c1cc2cc(C(=O)N(Cc3ccc(-c4cnn(C)c4)cn3)N(C)c3ncccn3)ccc2nc1N [Example 166, 2-amino-N'-methyl-3-(methyl-D3)-N-((5-(1-methyl-1H-pyrazol-4-yl)pyridin-2-yl)methyl)-N'-(pyrimidin-2-yl)quinoline-6-carbohydrazide]",8.32,5.90,7.17,18.32
"Cc1cc2cc(C(=O)N(Cc3ccc(-c4ccn(C)n4)cn3)N(C)c3ncccn3)ccc2nc1N [Example 168, 2-amino-N',3-dimethyl-N-((5-(1-methyl-1H-pyrazol-3-yl)pyridin-2-yl)methyl)-N'-(pyrimidin-2-yl)quinoline-6-carbohydrazide]",8.59,5.59,6.71,13.26
"Cc1cc2cc(C(=O)N(Cc3ccc(-c4cnn(C5COC5)c4)cn3)N(C)c3ncccn3)ccc2nc1N [Example 169, 2-amino-N',3-dimethyl-N-((5-(1-(oxetan-3-yl)-1H-pyrazol-4-yl)pyridin-2-yl)methyl)-N'-(pyrimidin-2-yl)quinoline-6-carbohydrazide]",8.60,6.01,7.41,24.95
"Cc1ncsc1-c1ccc(CN(C(=O)c2ccc3nc(N)c(Br)cc3c2)N(c2ncccn2)C2CC2)nc1 [Example 171, 2-amino-3-bromo-N'-cyclopropyl-N-((5-(4-methylthiazol-5-yl)pyridin-2-yl)methyl)-N'-(pyrimidin-2-yl)quinoline-6-carbohydrazide]",8.28,6.21,7.37,14.47
"Cc1cc2cc(C(=O)N(Cc3ccc(-c4cccnc4)cn3)N(C)c3ncccn3)ccc2nc1N [Example 172, N-([3,3'-bipyridine]-6-ylmethyl)-2-amino -N',3-dimethyl-N'-(pyrimidin-2-yl)quinoline-6-carbohydrazide]",8.68,5.76,7.62,73.08
"Cc1cc2cc(C(=O)N(Cc3ccc(-c4ccncc4)cn3)N(C)c3ncccn3)ccc2nc1N [Example 173, N-([3,4'-bipyridine]-6-ylmethyl)-2-amino -N',3-dimethyl-N'-(pyrimidin-2-yl)quinoline-6-carbohydrazide]",8.72,6.20,7.68,30.14
"COc1ccc(-c2ccc(CN(C(=O)c3ccc4nc(N)c(C)cc4c3)N(C)c3ncccn3)nc2)cn1 [Example 174, 2-amino-N-((6'-methoxy-[3,3'-bipyridine] -6-yl)methyl)-N',3-dimethyl-N'-(pyrimidin-2-yl)quinoline-6-carbohydrazide]",8.64,5.97,7.39,26.22
"Cc1cc2cc(C(=O)N(Cc3ccc(-c4cncc(C(F)(F)F)c4)cn3)N(C)c3ncccn3)ccc2nc1N [Example 175, 2-amino-N',3-dimethyl-N'-(pyrimidin-2-yl)-N-((5'-(trifluoromethyl)-[3,3'-bipyridine]-6-yl)methyl)quinoline-6-carbohydrazide]",8.48,5.66,6.94,18.95
"Cc1cc2cc(C(=O)N(Cc3ccc(-c4ccc(N5CCOCC5)nc4)cn3)N(C)c3ncccn3)ccc2nc1N [Example 176, 2-amino-N',3-dimethyl-N-((6'-morpholinyl-[3,3'-bipyridine]-6-yl)methyl)-N'-(pyrimidin-2-yl)quinoline-6-carbohydrazide]",8.70,6.00,7.24,17.49
"Cc1cc2cc(C(=O)N(Cc3ccc(-c4cccnc4)cc3F)N(C)c3ncccn3)ccc2nc1N [Example 177, 2-amino-N-(2-fluoro-4-(pyridin-3-yl)benzyl)-N',3-dimethyl-N'-(pyrimidin-2-yl)qu inoline-6-carbohydrazide]",8.96,6.03,7.52,31.20
"Cc1cc2cc(C(=O)N(Cc3ccc(-c4ccncc4)cn3)N(C)c3ncccc3F)ccc2nc1N [Example 178, N-([3,4'-bipyridine]-6-ylmethyl)-2-amino -N'-(3-fluoropyridin-2-yl)-N',3-dimethylq uinoline-6-carbohydrazide]",8.80,6.31,7.68,23.14
"Cc1cc2cc(C(=O)N(Cc3ccc(-c4cnn(C)c4)cn3)N(C)c3ncccc3F)ccc2nc1N [Example 179, 2-amino-N'-(3-fluoropyridin-2-yl)-N',3-di methyl-N-((5-(1-methyl-1H-pyrazol-4-yl)pyridin-2-yl)methyl)quinoline-6-carbohy drazide]",8.47,5.88,7.19,20.56
"Cc1ncc(-c2ccc(CN(C(=O)c3ccc4nc(N)c(C)cc4c3)N(C)c3ncccn3)nc2)cn1 [Example 180, 2-amino-N',3-dimethyl-N-((5-(2-methylpyrimidin-5-yl)pyridin-2-yl)methyl)-N'-(pyrimidin-2-yl)quinoline-6-carbohydrazide]",8.49,5.73,7.39,45.73
"Cc1cc2cc(C(=O)N(Cc3ccc(-c4cnn(CC(F)(F)F)c4)cn3)N(C)c3ncccn3)ccc2nc1N [Example 181, 2-amino-N',3-dimethyl-N'-(pyrimidin-2-yl)-N-((5-(1-(2,2,2-trifluoroethyl)-1H-pyrazol-4-yl)pyridin-2-yl)methyl)quinoline-6-carbohydrazide]",9.16,6.06,7.44,24.03
"Cc1cc2cc(C(=O)N(Cc3ccc(-c4cncs4)cn3)N(C)c3nccc4nccnc34)ccc2nc1N [Example 183, 2-amino-N',3-dimethyl-N'-(pyrido[3,4-b]pyrazin-5-yl)-N-((5-(thiazol-5-yl)pyridin-2-yl)methyl)quinoline-6-carbohydrazide]",8.41,6.50,7.77,18.71
"Cc1cc2cc(C(=O)N(Cc3ccc(-c4scnc4C)cn3)N(C)c3nccc4nccnc34)ccc2nc1N [Example 185, 2-amino-N',3-dimethyl-N-((5-(4-methylthiazol-5-yl)pyridin-2-yl)methyl)-N'-(pyrido[3,4-b]pyrazin-5-yl)quinoline-6-carbohydrazide]",8.33,6.89,8.12,17.07
"Cc1cc2cc(C(=O)N(Cc3ccc(C4=CCOC4)cn3)N(C)c3ncccn3)ccc2nc1N [Example 186, 2-amino-N-((5-(2,5-dihydrofuran-3-yl)pyridin-2-yl)methyl)-N',3-dimethyl-N'-(pyrimidin-2-yl)quinoline-6-carbohydrazide]",8.25,5.55,6.91,23.20
